Measured values: patent US20200390729A1, “OPHTHALMIC TOPICAL COMPOSITION COMPRISING DOBESILIC ACID FOR TREATING DISEASES OF THE POSTERIOR SEGMENT OF THE EYE” (LABORATORIOS SALVAT, S.A., priority 2017, published 2020)
Read-outs that look alike come from different tables or passages of the source.

Assay: Ocular distribution of CDO in rats, single dose topical ocular vs. oral
Type: in vivo, Sprague Dawley (SD) rat
Details: Sprague Dawley, rat
Protocol: In Sprague Dawley (SD) rat, weighing approximately 200 g, CDO was administered by topical ocular instillation (10 μl/eye) at 10 mg/ml (composition 2 of Example 1), at 100 mg/ml (composition 5 of Example 1) or by oral gavage at 50 mg/kg, at 200 mg/kg or at 750 mg/kg in aqueous solution (from compositions 1, 3 and 4, respectively, of Example 1). At 15, 60, 180 and 360 minutes post-administration, animals were euthanized and plasma and ocular tissues including sclera, cornea, retina, vitreous humour/lens and optic nerve were collected.
Bioanalysis of CDO was performed depending on the type of matrix. In the case of plasma, proteins were precipitated using methanol. In the case of tissues, samples were grinded in a Mini Bead Beater using zirconium beads and methanol/water (1:1) (v/v) as solvent. After centrifugation, samples were analyzed by UPLC-MS/MS.
Chromatographic separation was carried out using an Acquity CSH Fluoro Phenyl column (1.7 μm, 50×2.1 mm). Mobile phase consisted of a gradient using 0.1% formic acid in water and acetonitrile from 5% to 45% in 4.5 min at a flow rate of 0.6 ml/min.
With regard to the mass spectrometric detection, the electrospray ionization source worked to record negative ions. Multiple Reaction Monitoring (MRM) acquisition mode of the deprotonated molecular ions was performed. The transition monitored for CDO was m/z 189.0→80.1 with a cone voltage of 45 V and collision energy of 25 eV.

[1] = cornea, topical eye 10 mg/ml (eye drop of 10 μl) = 0.1 mg, read-out: CDO concentrations Cornea
[2] = cornea, topical eye 100 mg/ml (eye drop of 10 μl) = 1 mg, read-out: CDO concentrations Cornea
[3] = optic nerve, oral 50 mg/Kg = 10 mg, read-out: CDO concentrations Optic nerve
[4] = plasma, oral 200 mg/Kg = 40 mg, read-out: CDO concentrations Plasma
[5] = plasma, oral 750 mg/Kg = 150 mg, read-out: CDO concentrations Plasma
[6] = retina/choroid, topical eye 10 mg/ml (eye drop of 10 μl) = 0.1 mg, read-out: CDO concentrations Retina/Choroid
[7] = retina, oral 200 mg/Kg = 40 mg, read-out: CDO concentrations Retina
[8] = retina, oral 750 mg/Kg = 150 mg, read-out: CDO concentrations Retina
[9] = retina, topical eye 100 mg/ml (eye drop of 10 μl) = 1 mg, read-out: CDO concentrations Retina
[10] = sclera, topical eye 10 mg/ml (eye drop of 10 μl) = 0.1 mg, read-out: CDO concentrations Sclera

Work on `O=S(=O)(O)c1cc(O)ccc1O` [CDO, Calcium dobesilate monohydrate] yielded a concentration at 0.25 h [1] of 4610 ng/g, a concentration at 1 h [1] of 1010 ng/g and a concentration at 3 h [1] of 1990 ng/g. The concentration at 0.25 h [2] was 58000 ng/g, the concentration at 1 h [2] was 1720 ng/g and the concentration at 3 h [2] was 3110 ng/g. For the same compound, the concentration at 3 h [3] was 1890 ng/g, the concentration at 6 h [3] was 410 ng/g and the concentration at 0.25 h [4] was 3100 ng/g. The concentration at 1 h [4] was 9040 ng/g, the concentration at 3 h [4] was 11400 ng/g and the concentration at 0.25 h [5] was 12600 ng/g. The concentration at 1 h [5] was 28800 ng/g, the concentration at 3 h [5] was 47600 ng/g and the concentration at 0.25 h [6] was 1830 ng/g. The concentration at 1 h [6] was 600 ng/g, the concentration at 3 h [6] was 2150 ng/g and the concentration at 0.25 h (retina/choroid, topical eye 100 mg/ml (eye drop of 10 μl) = 1 mg, read-out: CDO concentrations Retina/Choroid) was 17600 ng/g. The concentration at 0.25 h [7] was 110 ng/g, the concentration at 1 h [7] was 470 ng/g and the concentration at 3 h [7] was 1040 ng/g. The concentration at 0.25 h [8] was 670 ng/g, the concentration at 1 h [8] was 1340 ng/g and the concentration at 3 h [8] was 2420 ng/g. The concentration at 0.25 h (retina, topical eye 10 mg/ml (eye drop of 10 μl) = 0.1 mg, read-out: CDO concentrations Retina) was 100 ng/g, the concentration at 0.25 h [9] was 2030 ng/g and the concentration at 1 h [9] was 640 ng/g. For the same compound, the concentration at 3 h [9] was 250 ng/g, the concentration at 6 h [9] was 130 ng/g and the concentration at 0.25 h [10] was 170 ng/g. The concentration at 1 h [10] was 330 ng/g, the concentration at 3 h [10] was 770 ng/g and the concentration at 0.25 h (sclera, topical eye 100 mg/ml (eye drop of 10 μl) = 1 mg, read-out: CDO concentrations Sclera) was 3540 ng/g.
